Experimental data reported in patent publication US12102672B2, “Immunogenic sequences from a phage tail length tape measure protein, bacteria expressing the same and their use in treating a cancer” (INSTITUT GUSTAVE ROUSSY, priority 2017, dated 2024).

How the values were obtained:
MCA205 sarcoma = settings: cited from earlier work; for anti-tumor immune response: FIG. 1D of Daillère et al., 2016
MCA-205 sarcoma [1] = test: MCA205 sarcoma growth in antibiotic-treated SPF C57BL/6 mice, CTX plus oral gavage with bacteria; type: in vivo; settings: ATB 3 days, CTX 100 mg/kg x3, weekly oral gavages, FIG. 27B
Procedure: (§1) A and C. Experimental setting. […] D-E. Ex vivo recall assays. […] Each dot represents one mouse.
A-B. Prophylactic vaccinations. […] C-D. Therapeutic settings.
Mice were treated during 3 days with an antibiotic solution (ATB) containing ampicillin (1 mg/ml), streptomycin (5 mg/ml), colistin (1 mg/ml) (Sigma-Aldrich) and vancomycin (0.25 mg/ml) added in the sterile drinking water of mice. Antibiotic activity was confirmed by cultivating fecal pellets resuspended in BHI+15% glycerol at 0.1 g/ml on COS (BD Columbia Agar with 5% Sheep Blood) plates for 48 h at 37° C. in aerobic and anaerobic conditions. In the context of bacterial transplantation experiments, mice received 3 days of ATB before undergoing bacterial transplantation the next day by oral gavage using animal feeding needles.
Syngeneic C57BL/6 mice were implanted with 0.8×10^6 MCA-205 WT sarcoma cells subcutaneously and treated intraperitoneally (i.p.) when tumors reached 20 to 35 mm^2 in size with CTX (100 mg/kg). Depending on the experimental setting, mice were injected once or 3 times at 1-week interval. Tumor size was routinely monitored every 3 days by means of a caliper.
Enterococcus hirae 13144 were originally isolated from spleens of SPF mice treated with CTX in our laboratory.

splenic CD8+ T cells = test: IFNγ ELISpot recall assay of splenic CD8+ T cells with DCs pulsed with heat-inactivated bacteria or peptides; type: cell-based, mice; settings: for memory Tc1 immune response (IFNγ spots) to BM-DC infected with EH isolates: Example 2, FIG. 10, splenic CD8+ T cells after gavage + CTX, ELISPOT at 24 hrs; for specific TC1 immune responses after restimulation with E. hirae strains loaded onto DC: Example 12, FIG. 27D, prime-boost exposure + CTX
Procedure: FIG. 9. Experimental immunization protocols to elucidate the immunogenicity of EH peptides. […] 5 days after the first oral gavage, mice are treated with CTX. One week post-CTX, CD8+ T cells are isolated from spleen. These CD8+ T cells are incubated with dendritic cells (DCs) pulsed with 20 μg/ml of peptides (during 1 hour) or with heat-inactivated bacteria (during 6 hours). Inactivation of bacteria consists in incubation at 65° C. during 2 hours. After 24 hours of culture, ELIspot of IFNγ is performed.
FIG. 10. Cross-reactivity between the two E. hirae 708 and 13144 species for CTL splenic reactivity. Number of IFNγ spot representing IFNγ-secreting CD8+ T cells after co-culture with DCs pre-incubated with or without heat-inactivated bacteria (708, 13144, EH17 and L. plantarum).
FIG. 13. Peptides from group 7 containing the TMP1 and TMP2 epitopes activate CD8+ T cells from spleen of mice immunized against E. hirae 13144. Number of IFNγ spot, representing IFNγ-secreting CD8+ T cells, after incubation with DCs pulsed with 13 different group of peptide (Table 6). Just group n° 1 (A) and group n° 7 (B) are shown. (C, E) Number of IFNγ spot, representing IFNγ-secreting CD8+ T cells, after incubation with DCs pulsed with 4 peptides belong to group n° 7 (in table 7). (D) Sequence alignment of TMP1 and TMP2 of EH10815 (SEQ ID Nos: 228 and 229 respectively) compared to EH13144 (fragments of SEQ ID NO: 1) at the level of immunogenic peptides. Amino acid sequence […] corresponds to SEQ ID No: 13. Amino acid sequence […] corresponds to SEQ ID No: 217. Amino acid sequence […] corresponds to SEQ ID Nos: 14. Amino acid sequence AlIEFIKGL corresponds to SEQ ID No: 218. (E) In vitro reactivity of splenic CTL in a recall response to TMP1 and TMP2 as well as Group7 after in vivo immunization with other strains of EH.
as §1

MCA-205 sarcoma [2] = test: MCA-205 sarcoma growth in FMT-treated mice, CTX plus oral gavage with E. hirae strains; type: in vivo; settings: for Anti-tumor effect: summary of the characteristics of the strains, with CTX, MCA205 sarcoma; for CTX-mediated antitumor effects (MCA-205 tumor growth): FMT from BC patient 2 with no overt dysbiosis, oral gavage; for boost of CTX tumoricidal activity (MCA-205 tumor growth): dysbiotic FMT from BC patient, 3 cycles CTX 100 mg/kg, oral gavage 1.10^9 bacteria
Procedure: FIG. 1. Experimental setting. (A) Mice are treated with broad spectrum antibiotics (streptomycin, colistin, ampicillin and vancomycine) for 3 days before performing Fecal Microbiota Transplantation (FMT). 14 days post-FMT, MCA-205 sarcoma cell lines are inoculated in the right flank of mice (8.10^5 cells per mice). […] (B) Non FMT-treated SPF mice are used as control.
FIG. 2. Dysbiosis by FMT BC patient 1: Effectiveness of E. hirae 13144 to restore CTX-mediated antitumor effects. […] (C) Tumor growth curves of MCA-205 sarcoma in FMT-treated mice after oral gavage with strain E. hirae 13144 or NaCl as control. 2 independent experiments are depicted. (D) Overall survival of FMT-treated, MCA-205 sarcoma bearing mice treated with CTX or NaCl after oral gavage with strain E. hirae 13144. A typical survival curve is depicted for six mice per group. (E) Concatenated data of tumor sizes at day 21 post-CTX from 2 independent experiments are shown.
FIG. 3. […] (C) Tumor growth curves of MCA-205 sarcoma in FMT-treated mice after oral gavage with strain E. hirae 13144 or NaCl as control. 2 independent experiments are depicted. (D) Concatenated data of tumor sizes at day 21 post-CTX from 2 independent experiments are shown.
FIG. 4. […] Tumor growth curves of MCA-205 sarcoma in FMT-treated mice after oral gavage with strain E. hirae 13144 (A), IGR1 (B) or NaCl as control. A typical curve is depicted for six mice per group. (C) Concatenated data of tumor sizes at day 17 post-CTX from 1-2 independent experiments are shown. (D). Comparaison of various strains of E. hirae for their capacity to control tumor growth. […] EH10815 fails to work and that may be related to a mutation residing in TMP2 (see below FIG. 13B).
FIG. 5. […] (A) Tumor surface of MCA-205 sarcoma in FMT-treated mice after oral gavage with strain E. hirae 13144, IGR4, IGR7, Actinomycetes spp (Ao) and injected with 3 cycles of CTX (C) vs NaCl (N). Each dot is one mouse/tumor. (B) Tumor growth curves of MCA-205 sarcoma in SPF mice of the best group, means+SEM of tumor sizes at each time point and tumor sizes at sacrifice (C: CTX). Each dot is one mouse/tumor. Anova statistics indicating significant differences between CTX and the triple combination. (C) Tumor surface of MCA-205 sarcoma in FMT-treated mice after oral gavage with strains EH13144, IGR1, IGR11, Barnesiella or Akkermansia and injected with 3 cycles of CTX. Bacterial strains are used alive (V) or pasteurized (P). For pasteurization, bacteria are incubated 30 min at 70° C. and frozen at −80° C. at least 6 hours.
FIG. 6. […] Tumor growth curves of MCA-205 sarcoma in FMT-treated mice after oral gavage with strain E. hirae 13144 alive (A), pasteurized (B) or NaCl as control. A typical curve is depicted for six mice per group. (C) Concatenated data of tumor sizes at day 17 post-CTX from 3 independent experiments are shown.

Enterococcus hirae 708 [Peptide 708, reference compound]
anti-tumor immune response (MCA205 sarcoma): fails to do so | restoration of antibiotic-perturbed anticancer effects of CTX (MCA205 growth) (MCA-205 sarcoma [1]): reduced anticancer effect | memory Tc1 immune response (IFNγ spots) to BM-DC infected with EH isolates (splenic CD8+ T cells): could induce memory Tc1 immune responses | specific TC1 immune responses after restimulation with E. hirae strains loaded onto DC (splenic CD8+ T cells): failed to do so | TC1 response against TMP1 in mice gavaged with the strain (IFNγ ELISpot) (splenic CD8+ T cells; Example 12, FIG. 27E): unable to do so | Anti-tumor effect (MCA-205 sarcoma [2]): No

Enterococcus hirae strain 13144 [Peptide 13144]
restoration of CTX-mediated antitumor effects (MCA205 sarcoma; 14 day-ATBs, oral gavage): selectively restored the CTX-mediated antitumor effects | anti-tumor immune response (MCA205 sarcoma): induces an efficient anti-tumor immune response | restoration of antibiotic-perturbed anticancer effects of CTX (MCA205 growth) (MCA-205 sarcoma [1]): efficient | memory Tc1 immune response (IFNγ spots) to BM-DC infected with EH isolates (splenic CD8+ T cells): could induce memory Tc1 immune responses | specific TC1 immune responses after restimulation with E. hirae strains loaded onto DC (splenic CD8+ T cells): triggered specific TC1 immune responses | CTX-mediated antitumor effects (MCA-205 tumor growth) (MCA-205 sarcoma [2]; listed as E. hirae 13144): ameliorates the CTX-mediated antitumor effects | CTX-mediated antitumor effects (MCA-205 tumor growth) (MCA-205 sarcoma [2]; listed as EH13144): significant | boost of CTX tumoricidal activity (MCA-205 tumor growth) (MCA-205 sarcoma [2]; listed as E. hirae 13144): only when used alive | boost of CTX tumoricidal activity (MCA-205 tumor growth) (MCA-205 sarcoma [2]; listed as EH13144): very effective at restoring the efficacy | Anti-tumor effect (MCA-205 sarcoma [2]): Yes
